Data as given in patent EP4803523A1, “FUSED HETEROARYL COMPOUND, PREPARATION METHOD THEREFOR, AND USE THEREOF IN MEDICINE” (Jiangsu Hengrui Pharmaceuticals Co., Ltd., priority 2023, dated 2025).

What was measured:
Assay in all cases: 3D cell proliferation inhibition assay (CellTiter-Glo 3D)
Type in all cases: cell-based
SW620 = settings: Homo sapiens, SW-620, 120 h; SW620 cells, KRAS G12V, 3D culture, 5 days with compound
Description: (§1) This experiment uses the cells listed in the table below to evaluate the inhibitory effects of the compounds on the proliferation of KRAS mutant or KRAS amplified cells.
(§2) On the first day of the experiment, cells that were growing well and had reached 70%-80% confluence were digested, resuspended in culture medium, and the cell density was adjusted to the desired level. In a U-shaped low-attachment 96-well plate (Corning, 7007), 90 µL of cell suspension was added per well, with the cell density as shown in the table above. The cell plate was centrifuged at 2500 rpm for 5 minutes and then placed in an incubator for 24 hours of culture. On the second day, the 20 mM test compound dissolved in DMSO was diluted with DMSO to the first concentration of 2 or 0.2 mM, and then serially diluted in a 5-fold gradient to obtain 9 concentration points, with the control well containing DMSO. The serially diluted compound was then further diluted 20-fold with culture medium. 10 µL of the test compound diluted in culture medium was added to each well of the cell plate. The final concentrations of the compound were 9 points in a 5-fold serial dilution starting from 10 or 1 µM. Cell wells containing 0.5% DMSO were set as vehicle control wells, and wells containing only culture medium and 0.5% DMSO were set as blank control wells. The cell plate was centrifuged at 2000 rpm for 3 minutes and then placed in an incubator for 5 days of culture. On the seventh day, the 96-well cell culture plate was taken out, and 50 µL of the luminescent cell viability detection reagent, CellTiter-Glo® 3D Cell Viability Assay (Promega, G9683), was added to each well. After shaking at room temperature for 25 minutes, the mixture was pipetted up and down to mix, and 100 µL was transferred from each well to a white, opaque-bottom OptiPlate™-96 well plate (PerkinElmer, 6005290). The luminescence signal value was read using a multimode microplate reader (PerkinElmer, EnVision2105).
(§3) The inhibition rate was calculated using the following formula: Inhibition rate = (Luminescence value vehicle control well - Luminescence value test compound)/(Luminescence value vehicle control well - Luminescence value blank control well) × 100%. The IC50 values of the compound inhibitory activity were calculated using Graphpad Prism software. Table 1. Data of inhibitory activity on 3D cell proliferation (unit: nM)

GP2d = settings: GP2d, 120 h, GP2d cells, KRAS G12D, 3D culture, 5 days with compound
Description: as §1, §2, §3

AsPC-1 = settings: Homo sapiens, ASPC1, 120 h; AsPC-1 cells, KRAS G12D, 3D culture, 5 days with compound
Description: as §1, §2, §3

MKN1 = settings: Homo sapiens, MKN-1, 120 h; MKN1 cells, KRAS Amp, 3D culture, 5 days with compound
Description: as §1, §2, §3

H358 = settings: Homo sapiens, NCI-H358, 120 h; H358 cells, KRAS G12C, 3D culture, 5 days with compound
Description: as §1, §2, §3

AGS = settings: Homo sapiens, 120 h; AGS cells, KRAS G12D, 3D culture, 5 days with compound
Description: as §1, §2, §3

IC50 (SW620) [nM]	IC50 (MKN1) [nM]	IC50 (H358) [nM]	SMILES	IC50 (GP2d) [nM]	IC50 (AsPC-1) [nM]	IC50 (AGS) [nM]
3.4	1.3	2.78	N#Cc1c(N)sc2c(F)ccc(-c3c4c(c5cnc(OCC67CCCN6CC(=C(F)F)C7)nc5c3F)COC4)c12 (single isomer, unassigned) [Example 44A]	2.59	8.36	5.03
			C[C@@H](O)CN1CC2CCC(C1)N2c1nc(OCC2(CN3CCC(=CF)CC3)CC2)nc2c(F)c(-c3ncc(F)c4sc(N)c(C#N)c34)c3c(c12)COC3 [Example 1, 2-amino-7-fluoro-4-(5-fluoro-3-((1-((4-(fluoromethylene)piperidin-1-yl)methyl)cyclopropyl)methoxy)-1-(3-((R)-2-hydroxypropyl)-3,8-diazabicyclo[3.2.1]oct-8-yl)-7,9-dihydrofuro[3,4-f]quinazolin-6-yl)thieno[3,2-c]pyridine-3-carbonitrile]	0.28	4.17	1.03
			N#Cc1c(N)sc2c(F)cnc(-c3c4c(c5c(N6C7CCC6CNC7)nc(OCC6(CN7CCC(=CF)CC7)CC6)nc5c3F)COC4)c12 [Example 1i, 4-(1-(3,8-diazabicyclo[3.2.1]oct-8-yl)-5-fluoro-3-((1-((4-(fluoromethylene)piperidin-1-yl)methyl)cyclopropyl)methoxy)-7,9-dihydrofuro[3,4-f]quinazolin-6-yl)-2-amino-7-fluorothieno[3,2-c]pyridine-3-carbonitrile]	0.34	5.07	1.03
			N#Cc1c(N)sc2c(F)ccc(-c3c4c(c5c(N6C7CCC6CNC7)nc(OCC6(CN7CCC(=CF)CC7)CC6)nc5c3F)COC4)c12 [Example 9, 4-(1-(3,8-diazabicyclo[3.2.1]oct-8-yl)-5-fluoro-3-((1-((4-(fluoromethylene)piperidin-1-yl)methyl)cyclopropyl)methoxy)-7,9-dihydrofuro[3,4-f]quinazolin-6-yl)-2-amino-7-fluorobenzo[b]thiophene-3-carbonitrile]	0.26	9.95	1.09
	8.1		N#Cc1c(N)sc2c(F)ccc(-c3c4c(c5cnc(OCC6(CN7CCC(=CF)CC7)CC6)nc5c3F)COC4)c12 [Example 14, 2-Amino-7-fluoro-4-(5-fluoro-3-((1-((4-(fluoromethylene)piperidin-1-yl)methyl)cyclopropyl)methoxy)-7,9-dihydrofuro[3,4-f]quinazolin-6-yl)benzo[b]thiophene-3-carbonitrile]	5.85		15.1
7.9	6.9		N#Cc1c(N)sc2c(F)ccc(-c3c4c(c5cnc(OCC67CCCN6CC(=CF)C7)nc5c3F)COC4)c12 (centres unmarked) [Example 15, 2-Amino-7-fluoro-4-(5-fluoro-3-((2-(fluoromethylene)tetrahydro-1H-pyrrolizin-7a(5H)-yl)methoxy)-7,9-dihydrofuro[3,4-f]quinazolin-6-yl)benzo[b]thiophene-3-carbonitrile]	1.71	14.7	9.12
			N#Cc1c(N)sc2c(F)cnc(-c3c4c(c5c(N6C7CCC6CNC7)nc(OCC6(CN7CCC(=C(F)F)CC7)CC6)nc5c3F)COC4)c12 [Example 20, 4-(1-(3,8-diazabicyclo[3.2.1]oct-8-yl)-3-((1-((4-(difluoromethylene)piperidin-1-yl)methyl)cyclopropyl)methoxy)-5-fluoro-7,9-dihydrofuro[3,4-f]quinazolin-6-yl)-2-amino-7-fluorothieno[3,2-c]pyridine-3-carbonitrile]	0.27	7.56	2.09
			N#Cc1c(N)sc2c(F)cnc(-c3c4c(c5c(N6C7CCC6CN(O)C7)nc(OCC6(CN7CCC(=CF)CC7)CC6)nc5c3F)COC4)c12 [Example 22, 2-Amino-7-fluoro-4-(5-fluoro-3-((1-((4-(fluoromethylene)piperidin-1-yl)methyl)cyclopropyl)methoxy)-1-(3-hydroxyl-3,8-diazabicyclo[3.2.1]oct-8-yl)-7,9-dihydrofuro[3,4-f]quinazolin-6-yl)thieno[3,2-c]pyridine-3-carbonitrile]	0.26	4.64	1.57
	13.2		C=C1CN2CC(=C)CC2(COc2ncc3c4c(c(-c5ccc(F)c6sc(N)c(C#N)c56)c(F)c3n2)COC4)C1 [Example 26, 2-Amino-4-(3-((2,6-dimethylenetetrahydro-1H-pyrrolizin-7a(5H)-yl)methoxy)-5-fluoro-7,9-dihydrofuro[3,4-f]quinazolin-6-yl)-7-fluorobenzo[b]thiophene-3-carbonitrile]	9.79		
12.4	8.2	8.85	N#Cc1c(N)sc2c(F)ccc(-c3c4c(c5cnc(OCC67CCCN6CC(=C(F)F)C7)nc5c3F)COC4)c12 (centres unmarked) [Example 27, 2-Amino-4-(3-((2-(difluoromethylene)tetrahydro-1H-pyrrolizin-7a(5H)-yl)methoxy)-5-fluoro-7,9-dihydrofuro[3,4-f]quinazolin-6-yl)-7-fluorobenzo[b]thiophene-3-carbonitrile]	6.61		
10.1		8.04	N#Cc1c(N)sc2c(F)ccc(-c3c4c(c5c(C6CC6)nc(OC[C@@]67CCCN6C[C@H](F)C7)nc5c3F)COC4)c12 [Example 36, 2-Amino-4-(1-cyclopropyl-5-fluoro-3-(((2R,7aS)-2-fluorotetrahydro-1H-pyrrolizin-7a(5H)-yl)methoxy)-7,9-dihydrofuro[3,4-f]quinazolin-6-yl)-7-fluorobenzo[b]thiophene-3-carbonitrile]			
12.7	4	4.76	N#Cc1c(N)sc2c(F)ccc(-c3c4c(c5cnc(OCC6(CN7CCC(=CF)CC7)CC6)nc5c3Cl)COC4)c12 [Example 39, 2-Amino-4-(5-chloro-3-((1-((4-(fluoromethylene)piperidin-1-yl)methyl)cyclopropyl)methoxy)-7,9-dihydrofuro[3,4-f]quinazolin-6-yl)-7-fluorobenzo[b]thiophene-3-carbonitrile]	2.95	7.65	4.07
	11.1		N#Cc1c(N)sc2ccc(F)c(-c3c4c(c5cnc(OCC6(CN7CCC(=CF)CC7)CC6)nc5c3F)COC4)c12 [Example 40, 2-Amino-5-fluoro-4-(5-fluoro-3-((1-((4-(fluoromethylene)piperidin-1-yl)methyl)cyclopropyl)methoxy)-7,9-dihydrofuro[3,4-f]quinazolin-6-yl)benzo[b]thiophene-3-carbonitrile]	8.4		
		6.76	C=CC(=O)N1C[C@H](C)N(c2nc(OCC3(CN4CCC(=C(F)F)CC4)CC3)nc3c(F)c(-c4ncc(F)c5sc(N)c(C#N)c45)c4c(c23)COC4)C[C@H]1C [Example 56]			

SMILES	IC50 (SW620) [nM]	IC50 (MKN1) [nM]	IC50 (H358) [nM]	IC50 (GP2d) [nM]	IC50 (AsPC-1) [nM]	IC50 (AGS) [nM]
C=CC(=O)N1CC2CCC(C1)N2c1nc(OCC2(CN3CCC(=C(F)F)CC3)CC2)nc2c(F)c(-c3ncc(F)c4sc(N)c(C#N)c34)c3c(c12)COC3 [Example 55]			0.63			
